Source: patent US5866775A, “Glyphosate-tolerant 5-enolpyruvyl-3-phosphoshikimate synthases” (Monsanto Company, priority 1990, dated 1999)

Assays:
[1] = target: T1, pMON8252 encoded petunia EPSPS variant, glycine (101) to alanine and alanine (192) to threonine (Petunia hybrida, UniProt P11043, A264T/G173A); test: EPSP synthase kinetic constants (appKm PEP, appKi glyphosate); format: biochemical
T1 construct: alanine 192 in the mature petunia EPSP synthase; made in house; host or cells: E. coli SR481 (aroA-)
Protocol: The balance of the #742 preculture (~750 μl) was used to inoculate 2 ml of 2XYT medium containing 50 μg/ml carbenicillin and was shaken overnight at 37° C. to reach saturation. Plasmid DNA was isolated from an aliquot of the saturated culture using an alkaline lysis procedure. The plasmid was designated pMON8252. An aliquot of the pMON8252 plasmid was used to transform the E. coli host SR481 (described above) and reselected on MOPS medium containing 10 mM glyphosate and 50 μg/ml carbenicillin. A single glyphosate resistant colony of pMON8252 was picked off the selection plate and used to inoculate 3 ml of 2XY1 bacterial medium containing 50 μg/ml carbenicillin. The culture was then aerated on a rotating wheel at 37° C. until saturated and then used to inoculate a larger 250 ml culture. The large culture was grown to saturation by continuously shaking it overnight at 37° C. in a water bath. The bacterial cells were lysed and the extracts were assayed for EPSPS activity.
Specifically, the bacterial cell paste was washed twice with 0.9% saline, suspended in buffer (100 mM Tris-HCl, 5 mM benzamidine HCl) and passed twice through a French Pressure Cell at 1000 psi. The cell extract was separated from the cells by centrifuging at 15,000×gravity for 10 minutes at 5° C. It was desalted using Sephadex G-50 (Pharmacia, Piscataway, N.J.). The desalted extract was assayed for EPSP synthase activity as follows.
Kinetic constants (appKm PEP and appKi glyphosate) were determined for EPSP synthase as described below. Substrate kinetic parameters were determined at pH 7.9 in 50 mM HEPES (N-[2-hydroxyethyl]piperazine-N'-[2-ethanesulfonic acid]) buffer in the presence of 2 mM S3P and varying amounts of ^14 C-PEP (10 μM-400 μM), for 2.0 minutes at 25° C. Reactions were quenched with 100 mM NaAcetate in ethanol, pH 4.5, centrifuged and analyzed for product EPSP formation by HPLC with flow radioactivity detection. HPLC conditions were 0.35M KPi, pH 6.5, on a Synchropak AX100 column at 1.0 ml/minute.

[2] = system: bacteria harboring pMON342 or pMON9566; test: Glyphosate tolerance of bacteria expressing petunia EPSPS from the double pL promoter; format: cell-based, E. coli; settings: either plasmid
Protocol: The double pL promoter used to express the petunia EPSP synthase in pMON342 and pMON9566 leads to a very high level of expression of the enzyme. The enzyme is present at such high concentration that bacteria harboring either of these plasmids are tolerant to very high levels of glyphosate (>5 mM) in growth media, even though the enzyme produced by pMON342 is the wild type form. […] A plasmid for identifying such a promoter was constructed as follows: pMON9544, the precursor to pMON342, was digested with BamHI to remove the pL promoters, and was recircularized by ligation resulting in pMON362. The EcoRI fragment of pMON9556 containing the 3'portion of the petunia EPSPS cDNA was then inserted into the EcoRI site of this plasmid reconstituting the entire coding sequence. The resulting plasmid, pMON364 is identical to pMON342 except that there is no promoter 5' of the EPSP synthase coding sequence.

[3] = system: petunia leaf disks transformed with control vector pMON505; test: Leaf disk callus growth on glyphosate medium, control disks; format: cell-based; settings: within 10 days
Protocol: Leaf disks with diameters of 6 mm (1/4 inch) were taken from surface-sterilized petunia leaves. They were cultured on MS104 agar medium for 2 days to promote partial cell wall formation at the wound surfaces. They were then submerged in a culture of A. tumefaciens cells containing both pMON546 and GV3111-SE which had grown overnight in Luria broth at 28° C., and shaken gently. The leaf disks were removed from the bacterial suspension, blotted dry, and incubated upside down on filter paper placed over "nurse" cultures of tobacco cells, as described by Horsch (1980). After 2 or 3 days, the disks were transferred to petri dishes containing MS media with 500 μg/ml carbenicillin and 0. 0.1, 0.25, or 0.5 mM glyphosate (sodium salt), with no nurse cultures.
Control tissue was created using A. tumefaciens cells containing the helper plasmid pGV3111-SE and a different plant transformation vector, pMON505, which contained a T-DNA region with a NOS/NPTII/NOS kanamycin resistance gene and a NOS selectable marker gene identical to pMON546, but without the CaMV35S/EPSP synthase gene.

[4] = system: non-transformed canola plants; test: Glyphosate spray of canola, non-transformed controls; format: in vivo; settings: 0.56 kg/ha spray
Text: A total of 15 transgenic canola plants containing the pMON10074 construct, and 2 non-transformed controls were sprayed with glyphosate at a commercial rate of 0.56 kg/ha. The effect of glyphosate on both the vegetative and reproductive performance of the sprayed plants was scored at 7, 14 and 28 days after spray. The effect of glyphosate was translated to a numerical scale of 0-10, where 0 represents total kill and 10 represents the normal, unsprayed plant. The non-transformed controls had vegetative scores of 2 after 14 days and reproductive scores of 0 after 28 days.

T1 sequence (P11043 73-516 G173A/A264T): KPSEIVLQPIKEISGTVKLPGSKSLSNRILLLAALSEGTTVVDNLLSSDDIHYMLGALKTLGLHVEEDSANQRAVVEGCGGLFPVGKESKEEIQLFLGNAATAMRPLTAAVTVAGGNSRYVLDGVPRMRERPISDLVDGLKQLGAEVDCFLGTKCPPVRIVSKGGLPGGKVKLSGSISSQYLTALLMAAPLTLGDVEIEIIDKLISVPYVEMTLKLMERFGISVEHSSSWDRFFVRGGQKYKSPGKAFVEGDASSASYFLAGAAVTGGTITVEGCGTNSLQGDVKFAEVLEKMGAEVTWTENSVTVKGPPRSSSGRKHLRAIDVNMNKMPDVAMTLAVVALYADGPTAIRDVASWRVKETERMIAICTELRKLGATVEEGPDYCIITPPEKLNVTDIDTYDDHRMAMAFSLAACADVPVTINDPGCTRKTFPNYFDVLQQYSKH

`O=C(O)CNCP(=O)(O)O` [glyphosate, N-phosphonomethylglycine] was tested. Which “Ki /Km ratio” value ([1]; Ki glyphosate / Km PEP) did it give?
The value was 12.6.

What about the Ki for glyphosate ([1]; versus PEP, extract of SR481 cells with pMON8252) of the same molecule?
Its Ki for glyphosate is 683 µM.

What about the “glyphosate level tolerated in growth media” value [2] of the same molecule?
Its value is greater than 5 mM.

And the callus growth ([3]; 0.25 mM glyphosate (sodium salt))?
Its callus growth is “very little growth of callus from control disks”.

What about the callus growth ([3]; 0.5 mM glyphosate (sodium salt)) of the same molecule?
Its callus growth is “no callus growth from the control disks”.

And the “vegetative score (scale 0-10, 0 total kill, 10 normal unsprayed plant)” value ([4]; after 14 days)?
Its value is 2.

And the “reproductive score (scale 0-10, 0 total kill, 10 normal unsprayed plant)” value ([4]; after 28 days)?
The value was 0.
